Source: patent EP4667500A1, “FRUCTOOLIGOSACCHARIDE DERIVATIVES AND USES THEREOF” (Biopract GmbH, priority 2024, dated 2025)

Test system: pancreatic enzymes
Assay: Stability in simulated small intestine (pancreatic hydrolysis), released substituent acid detected by HPLC
Format: in vitro ADME
Conditions: incubation in simulated intestinal environment
From the text: The compounds analysed are esters between primary or secondary alcohols and fatty acids. In the stomach, the influence of the pH value and its chemical effect is decisive. The stability of the molecules there depends mainly on the nature of the bond. This is the same for all the molecules analysed. […] In contrast, hydrolysis in the small intestine is enzymatically catalysed and the stability can vary greatly between the molecules studied. The work on stability was therefore focussed on pancreatic hydrolysis.
The synthesised ester compounds consisted of a fructooligosaccharide scaffold of the inulin or levan type, to which substituent molecules were bound via an ester bond. Organic acids, predominantly butyric acid, and also propionic acid, acetic acid, succinic acid and benzoic acid served as substituents. The study consisted of incubating the substances in a simulated intestinal environment, followed by the detection of the substituent acid present and, if applicable, released by means of HPLC. Tributyrin was used as a positive control according to the literature.

stability under the test conditions of the simulated small intestine: largely hydrolysed
Structure (SMILES): CCCC(=O)OCC(COC(=O)CCC)OC(=O)CCC [Tributyrin]
